Reference: patent publication EP0974360A2, “Pharmaceutical preparations for use in combatting or preventing surface infections caused by microorganisms” (N.V. Nutricia, priority 1998, dated 2000)

Key:
C. glabrata Y110 [1] = assay: Synergy experiments (8 by 8 dilution matrix, growth by UV turbidity at 630 nm); assay type: cell-based; settings: for UV (Candida growth, 630 nm): 24 hours
C. glabrata Y110 [2] = assay: MIC and growth inhibition at several pH's in SLM or RPMI medium; assay type: cell-based; settings: figures 5 and 6

Row | decline of effective concentration as compared to its MIC value (C. glabrata Y110 [1]; 0.0008 µg/ml 5-fluorocytosine with 0.02 mg/ml lactoferrin) [times] | Compound | effect of an increase in pH of the medium on inhibition (C. glabrata Y110 [2]) | UV (Candida growth, 630 nm) (C. glabrata Y110 [1]; Fluconazole 0.2 mg/ml alone) | UV (Candida growth, 630 nm) (C. glabrata Y110 [1]; Fluconazole 0.33 mg/ml alone) | UV (Candida growth, 630 nm) (C. glabrata Y110 [1]; Fluconazole 0.5 mg/ml alone)
1 | 30 | Nc1nc(=O)[nH]cc1F [5-Fluorocytosine, 5-fluorocytosine] |  |  |  | 
2 |  | OC(Cn1cncn1)(Cn1cncn1)c1ccc(F)cc1F [Fluconazole, fluconazole] | more efficient inhibition | 0.003 | 0.003 | 0.004
